Data published in patent US4218456A, “1-(4-Fluorophenyl)-4-(1,2,3,6-tetrahydro-4-phenoxy-1-pyridinyl)-butanones” (Warner-Lambert Company, priority 1978, dated 1980).

System: dopamine receptor binding sites
Experiment: 3H-Haloperidol Receptor Binding Assay (HRBA)
Details: at 10^-8 mol/L concentration in vitro
Description: As with other known antipsychotics, the compounds of formula I readily displace ^3 H-haloperidol from dopamine receptor binding sites in the ^3 H-Haloperidol Receptor Binding Assay (HRBA). […] The HRBA screen is described by I. Creese, D. R. Burt and S. H. Snyder, Science, 192, 481 (1976) and P. Seeman, T. Lee, M. Chan-Wong and K. Wong, Nature, 261, 717 (1976).

For `O=C(CCCN1CC=C(Oc2ccc(F)cc2)CC1)c1ccc(F)cc1` [Example 9, 4-[4-(4-Fluorophenoxy)-1,2,3,6-tetrahydro-1-pyridinyl]-1-(4-fluorophenyl)-1-butanone(Z)-2-Butenedioate], the “inhibition of 3H-haloperidol” value was 87%.
